Assays:
[1] = test system: Human immunodeficiency virus 1; experiment: microbe, parasite or virus in culture; type: functional, organism-based; settings: Human immunodeficiency virus 1, 3B, MAGI-CCR5, 48 h
[2] = Cytotoxicity against human MAGI-CCR5 cells after 48 hrs by MTS cell viability assay
[3] = Selectivity index, ratio of CC50 for MAGI-CCR5 cells to IC50 for HIV13B infected in human MAGI-CCR5 cells; type: functional
[4] = molecular target: Human immunodeficiency virus type 1 reverse transcriptase (Human immunodeficiency virus 1, UniProt Q72547); experiment: Inhibition of HIV1 reverse transcriptase assessed as residual enzyme activity at 50 uM after 1 hr by ELISA
[5] = Permeability of the compound at 100 uM after 5 hrs by PAMPA

SMILES | IC50 [1] [µM] | CC50 at 48 h [2] [µM] | Ratio CC50/IC50 [3] | IC50 [4] [µM] | permeability [5]
Cc1cccc2nc(-c3ccccc3Cl)c(NC3CCCCC3)n12 | 0.19 | 20.5 | 108 | 1.55 | –
Cc1ccnc2c1NC(=O)c1cccnc1N2C1CC1 [NEVIRAPINE] | 0.09 | > 10 | – | – | –
CC(C)NCC(O)COc1cccc2[nH]ccc12 (stereo not given) [PINDOLOL] | – | – | – | – | permeable
Clc1ccccc1-c1nc2ccccn2c1NC1CCCCC1 | 0.41 | 60.4 | 147 | 4.4 | permeable
COCCc1ccc(OCC(O)CNC(C)C)cc1 (stereo not given) [METOPROLOL] | – | – | – | – | permeable
Cc1ccn2c(NC3CCCCC3)c(-c3ccccc3Cl)nc2c1 | – | – | – | – | permeable
N#Cc1ccc2nc(-c3ccccc3Cl)c(NC3CCCCC3)n2c1 | < 0.63 | 140 | >222 | 6.6 | permeable
Clc1ccccc1-c1nc2cccc(Br)n2c1NC1CCCCC1 | 3.15 | > 200 | 64 | 4.62 | –
Clc1ccc2nc(-c3ccccc3Cl)c(NC3CCCCC3)n2c1 | 0.84 | > 200 | >238 | 14.5 | permeable
Cc1ccc2nc(-c3ccccc3Cl)c(NC3CCCCC3)n2c1 | 0.64 | 57.4 | 90 | 5.39 | permeable
N#Cc1cccc2nc(-c3ccccc3Cl)c(NC3CCCCC3)n12 | 0.18 | 156 | 868 | 3.47 | permeable
Clc1ccccc1-c1nc2cccc(Cl)n2c1NC1CCCCC1 | 0.24 | 152 | 633 | 3.74 | permeable
Fc1ccc2nc(-c3ccccc3Cl)c(NC3CCCCC3)n2c1 | 1.88 | 160 | 85 | 11.3 | –
Cc1c(Br)ccc2nc(-c3ccccc3Cl)c(NC3CCCCC3)n12 | 73 | > 200 | >3 | 18.9 | –
Clc1ccccc1-c1nc2ccc3ccccc3n2c1NC1CCCCC1 | 0.6 | 146 | 243 | 7.52 | permeable
Clc1ccccc1-c1nc2ccc(Br)cn2c1NC1CCCCC1 | 2.19 | > 200 | >91 | 12.2 | –
